Experimental data as given in PubChem BioAssay AID624447 (The Scripps Research Institute Molecular Screening Center, 2012).
Activity calls are given as the source filed them.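 Rule for the calls: active = PP2A blockers whose half-maximal inhibitory concentration IC50 falls below 50 µM; inactive = IC50 at or above 50 µM.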

Molecular target: Serine/threonine-protein phosphatase 2A catalytic subunit alpha isoform (Bos taurus) (UniProt P67774)
Assay: dose-dependent inhibition of bovine PP2A – biochemical, bovine brain PP2A, 32P-phosphohistone, dose response, round 5, selectivity assay for PP5 inhibitor project, late-stage follow-up (AID 624447)
Conditions: purified bovine PP2A, 32P-phosphohistone dephosphorylation, scintillation

Sequence of Serine/threonine-protein phosphatase 2A catalytic subunit alpha isoform (Bos taurus) (P67774 whole entry, looked up, canonical isoform): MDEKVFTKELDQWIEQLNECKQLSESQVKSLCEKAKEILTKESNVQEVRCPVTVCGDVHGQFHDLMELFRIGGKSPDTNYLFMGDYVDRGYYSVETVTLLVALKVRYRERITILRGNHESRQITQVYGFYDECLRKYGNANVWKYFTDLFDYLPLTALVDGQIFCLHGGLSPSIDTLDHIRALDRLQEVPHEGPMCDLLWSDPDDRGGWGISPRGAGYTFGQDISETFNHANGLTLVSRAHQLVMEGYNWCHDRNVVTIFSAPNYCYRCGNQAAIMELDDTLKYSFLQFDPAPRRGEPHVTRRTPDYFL

## CC(C)Oc1ccccc1-c1n[nH]nc1C(=O)O
  IC50: inactive
